Consider five compounds from patent US20240408042A1, “ORALLY DISINTEGRATING BACLOFEN COMPOSITIONS AND METHODS OF MAKING SAME” (Clinical Research Associates LLC, priority 2023, published 2024).

Series [1] is described as follows: Excipient solubility in HPLC method diluent. Particulars: approximately 1 to 2 mg/mL. In kind it is physicochemical.
For series [2] the following is noted: compared with S-baclofen; cited from earlier work.
For series [3] the following is noted: animal models; cited from earlier work.

Each structure is given as a SMILES string.

Regarding `CCCCCCCCCCCCCCCCCCOC(=O)/C=C/C(=O)[O-].[Na+]` [Pruv, Sodium Stearyl Fumarate], in series [1], the “Completely Soluble in 85% 50 mM Potassium Phosphate, pH 3.0, 15% ACN” value (“Completely Soluble … 15% ACN” for short) is “No”.

With `NC[C@H](CC(=O)O)c1ccc(Cl)cc1` (single isomer, unassigned) [R-baclofen], the “potency in reducing obsessive-compulsive and repetitive behavior and audiogenic seizures” value in series [2] was “more potent than S-baclofen”.

Turning to `NCC(CC(=O)O)c1ccc(Cl)cc1` (racemic) [Baclofen, (±)-4-Amino-3-(4-chlorophenyl) butanoic acid], the “absorption following administration into the colon” value in series [3] is on record as “poorly absorbed”.

On to `OC[C@@H](O)[C@@H](O)[C@H](O)[C@H](O)CO` [Pearlitol 300DC, Mannitol], for which, in series [1], the “Completely Soluble … 15% ACN” value is “Yes”.

For `OC[C@H]1O[C@H](O[C@]2(CCl)O[C@H](CCl)[C@@H](O)[C@@H]2O)[C@H](O)[C@@H](O)[C@H]1Cl` [Sucralose], the “Completely Soluble … 15% ACN” value in series [1] is on record as “Yes”.
